Assays:
[1] = system: p-Hsp27 (Ser82) and p-MK2 (T334) in THP-1 derived macrophages; assay: Western blot of MK2 signaling in LPS-stimulated THP-1 derived macrophages; type: cell-based, human; details: 1 h preincubation, LPS 100 ng/mL 30 min
Procedure: FIGURE 4 Targeting cellular MK2 signaling with irreversible inhibition by compound 11. (A and B) RT‐PCR analysis of IL‐1β, TNF‐α, and IL‐6 expression in Lipopolysaccharides (LPS)‐stimulated THP‐1 (A) and RAW264.7 (B) Cells, with pre‐treatment of compound 11 for 3 h followed by LPS (3 h) stimulation. (C) The inhibitory effects of compound 11 on TNF‐α and IL‐6 production in LPS‐stimulated RAW264.7 macrophages for 24 h, measured by ELISA. (D and E) Compound 11, alongside CC‐99677 and PF‐3644022, suppressed MK2 pathway activation, validated through western blot analysis post‐LPS stimulation. Cells were preincubated with the specified compounds for 1 h prior to LPS stimulation (100 ng/mL, 30 min). (F) Distinguishes the mode of action between compound 11 and CC‐99677. The complex structure of a small molecule and MK2 (3R2Y) with the same parent nucleus as compound 11 is shown in cyans, and the complex structure of a small molecule and MK2 (3FYJ) with the same parent nucleus as CC‐99677 is shown in orange. (G–I) The effect of indicated inhibitor on Hsp27 phosphorylation following inhibitor washout. Cells were pretreated with indicated compounds for 1 h and then washed to remove free compound and incubated for a further indicated time before activation with LPS. In (A–C), LPS (100 ng/mL) served as the stimulation control, while untreated cells were the baseline control. The data represent as mean ± SD from triplicates, with statistical analysis conducted via one‐way analysis of variance (ANOVA) (^## p < 0.01, ^### p < 0.001 vs. stimulation control; ^***p < 0.001 vs. baseline control).
Next, the efficacy of compound 11 in cellular MK2 signaling inhibition was evaluated by examining both p‐MK2 and p‐Hsp27 at Ser82 levels, the latter being a direct downstream substrate of p‐MK2. […] We try to explore this interesting phenomenon by superimposing the complex crystal structure (3FYJ) that harboring the same skeleton as CC‐99677 (Figure 4F). […] In that way, CC‐99677 binding to MK2 kinase after pre‐incubation with cells and after LPS stimulation may cause the difference in the spatial conformation of MK2 kinase domain, which may make p38 cannot properly bind to MK2, resulting in a decrease in the phosphorylation of MK2.
After the treatment outlined in the figure legends, cells were lysed using 1× sodium dodecyl sulfate (SDS) solution. The lysates were then subjected to SDS‐polyacrylamide gel electrophoresis for separation, followed by transferring onto nitrocellulose membranes. […] Protein bands were detected using an enhanced chemiluminescence detection reagent (Thermo Fisher Scientific).

[2] = system: p-Hsp27 in THP-1 cells; assay: Western blot of p-Hsp27 in IL-4/IL-13 treated THP-1 cells; type: cell-based, human; details: 1 h pretreatment, IL-4/IL-13 30 min
Excerpt: (§1) A previous study has reported that MK2 fostered M2‐like polarization of TAMs, driving a protumor and proangiogenic phenotype which in turn accelerates tumor progression.[21] We thus assessed the influence of compound 11 on macrophage polarization and function. Our experiments used human THP‐1 monocyte induced macrophages, mouse RAW264.7 macrophages, and mouse bone marrow‐derived macrophages (BMDM). These cells were induced into M2‐like macrophages using the classic IL‐4 and IL‐13 stimuli.
(§2) FIGURE 5 Inhibition of pro‐tumorigenic M2‐like polarization in macrophages by compound 11. (A–C) RT‐PCR analysis highlights the impact of compound 11 on MRC1 and ARG‐1 mRNA expression in various macrophage cells treated with IL‐4/IL‐13 alone or combined with compound 11 for 12 h or 24 h. (D) CD206 and Arg‐1 expression in bone marrow‐derived macrophages (BMDM) cells via flow cytometry post 48 h treatment of compound 11 and IL‐4/IL‐13. (E) The treatment effects of compound 11 in THP‐1 cells using western blot analysis. […] Data are shown as the mean ± SD. ^* p < 0.05; ^*** p < 0.001 versus the vehicle group, determined by unpaired t test. […]
After the treatment outlined in the figure legends, cells were lysed using 1× sodium dodecyl sulfate (SDS) solution. […] Protein bands were detected using an enhanced chemiluminescence detection reagent (Thermo Fisher Scientific).

[3] = system: CD206 and Arg-1 expression in BMDM; assay: Flow cytometry of CD206 and Arg-1 in IL-4/IL-13 stimulated BMDM; type: cell-based, mouse; details: IL-4/IL-13, 48 h
Excerpt: as §1
as §2, with “analysis. Cells were pretreated with compound 11 for 1 h and followed by IL‐4/IL‐13 treatment (30 min). (F) The influence of MK2 siRNA on MRC1 and ARG‐1 mRNA expression in THP‐1 cells by RT‐PCR analysis post‐IL‐4/IL‐13 stimulation (12 h).” for “analysis.”

[4] = biological target: T1, p70S6Kb (Homo sapiens, UniProt Q9UBS0); assay: Eurofins kinase selectivity profile, p70S6Kb; type: biochemical
T1 construct: purchased Eurofins (Celle Lévescault)
Procedure: Subsequently, to ascertain whether the high potency of compound 11 was specific for MK2, an additional 380 human recombinant protein kinases were screened.
To assess the impact of various compounds on MK2 kinase activity, we utilized the ADP‐Glo Assay Kit (Promega) following the manufacturer's instructions. Luminescence measurements were taken using a SpectraMax Paradigm reader. The inhibition percentage was calculated using the following formula: ((specific signalDMSO control − specific signal inhibitor)/(specific signalDMSO control)) × 100%. The IC50 values were determined employing dose–response curve fitting via Prism (Graph Pad). Additionally, Eurofins company (Celle Lévescault) conducted the analysis on compound 11’s inhibitory activity against 380 other human recombinant kinases at various concentrations.

T1 sequence (Q9UBS0 whole entry): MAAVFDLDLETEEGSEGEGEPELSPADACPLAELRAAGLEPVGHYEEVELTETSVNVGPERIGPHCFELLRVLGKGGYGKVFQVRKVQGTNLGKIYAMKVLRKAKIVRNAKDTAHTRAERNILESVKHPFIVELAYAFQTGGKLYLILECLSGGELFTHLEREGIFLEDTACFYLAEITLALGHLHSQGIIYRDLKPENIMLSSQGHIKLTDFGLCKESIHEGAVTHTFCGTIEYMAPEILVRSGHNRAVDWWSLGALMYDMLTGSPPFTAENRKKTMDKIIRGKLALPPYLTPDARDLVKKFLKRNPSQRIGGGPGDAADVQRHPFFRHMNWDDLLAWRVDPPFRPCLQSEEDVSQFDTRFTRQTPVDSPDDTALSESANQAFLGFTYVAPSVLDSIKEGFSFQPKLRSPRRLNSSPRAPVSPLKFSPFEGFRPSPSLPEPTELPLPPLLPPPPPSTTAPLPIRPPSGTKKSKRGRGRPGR

**Q.** C=CC(=O)Nc1cc(-c2cc(-c3cc4c([nH]3)CCNC4=O)ccn2)ccc1OC(F)(F)F [compound 11] was tested. Which “effect on MK2 phosphorylation at T334 site” value [1] did it give?
**A.** did not inhibit

**Q.** What about the “effect on phosphorylation of Hsp27 (Ser82)” value [1] of the same compound?
**A.** significantly inhibited

**Q.** What about the “effect on p-Hsp27” value [2] of the same compound?
**A.** significant inhibition

**Q.** And the “effect on expression levels of surface CD206 and Arg-1” value [3]?
**A.** suppress

**Q.** What about the IC50 [4] of the same compound?
**A.** > 1000 nM

**Q.** What about the inhibition at 0.01 µM ([4]; p70S6K(h), 10 nM, read-out: Inhibition rate) of the same compound?
**A.** -9%

**Q.** And the inhibition at 0.1 µM ([4]; p70S6K(h), 100 nM, read-out: Inhibition rate)?
**A.** -16%

**Q.** What about the inhibition at 1 µM ([4]; p70S6K(h), 1000 nM, read-out: Inhibition rate) of the same compound?
**A.** -6%

Source: article PMC11233931, “Remodeling tumor‐associated macrophage for anti‐cancer effects by rational design of irreversible inhibition of mitogen‐activated protein kinase‐activated protein kinase 2” (MedComm, 2024)
